# Measured values taken from patent publication US7238720B2, “Pharmaceutical use of N-carbamoylazole derivatives” (Eisai R & D Management Co. Ltd., priority 2001, dated 2007).
# Target: T1, DPP-IV, obtained from porcine kidneys (Sus scrofa, UniProt P22411)
# T1 construct: DPP-IV, obtained from porcine kidneys; from tissue; host or cells: porcine kidney
# Experiment: Measurement of DPPIV inhibiting effects (Gly-Pro-p-nitroanilide, absorbance at 405 nm)
# Format: biochemical
# Conditions: porcine kidney DPP-IV 10 mU/mL, 20 min preincubation, Gly-Pro-p-nitroanilide 0.33 mM, pH 7.4
# Experimental: Measurement of DPPIV Inhibiting Effects
# DPP-IV, obtained from porcine kidneys, was dissolved in a reaction buffer solution (50 mM Tris-HCl, pH 7.4, 0.1% BSA) such that the concentration of DPP-IV was at 10 mU/mL. This solution (110 μl) was placed into test tubes, to which compounds to be tested were further added at a quantity of 15 μl and incubated at room temperature for 20 minutes. Twenty-five microliters of a solution in which Gly-Pro-p-nitroanilide was dissolved at 2 mM was added (final concentration, 0.33 mM) to start the enzymatic reaction. The reaction time was 20 minutes. The reaction was stopped by the addition of 25 μl of 1 N phosphoric acid.
# T1 sequence (P22411 whole entry): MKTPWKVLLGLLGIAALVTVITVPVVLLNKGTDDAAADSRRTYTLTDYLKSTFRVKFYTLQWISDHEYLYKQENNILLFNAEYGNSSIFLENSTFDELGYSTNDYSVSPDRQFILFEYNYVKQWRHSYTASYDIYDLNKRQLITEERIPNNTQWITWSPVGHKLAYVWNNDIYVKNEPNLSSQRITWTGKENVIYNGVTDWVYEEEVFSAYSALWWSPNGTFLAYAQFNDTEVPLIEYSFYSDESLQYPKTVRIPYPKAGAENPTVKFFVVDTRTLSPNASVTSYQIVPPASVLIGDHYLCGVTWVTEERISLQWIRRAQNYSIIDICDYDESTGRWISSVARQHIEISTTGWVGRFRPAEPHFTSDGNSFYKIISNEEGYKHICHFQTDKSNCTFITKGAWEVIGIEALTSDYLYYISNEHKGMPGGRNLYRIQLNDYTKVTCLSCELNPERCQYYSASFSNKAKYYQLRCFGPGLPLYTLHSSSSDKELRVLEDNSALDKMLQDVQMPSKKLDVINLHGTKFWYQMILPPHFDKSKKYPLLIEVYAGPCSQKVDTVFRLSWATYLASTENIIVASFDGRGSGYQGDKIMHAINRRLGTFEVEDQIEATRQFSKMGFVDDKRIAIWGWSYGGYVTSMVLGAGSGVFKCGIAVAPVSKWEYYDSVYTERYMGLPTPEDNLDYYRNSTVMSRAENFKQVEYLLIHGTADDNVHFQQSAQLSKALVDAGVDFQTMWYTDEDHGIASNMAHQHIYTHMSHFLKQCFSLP
row,SMILES,IC50
1,"Cc1cc(C)c(S(=O)(=O)c2ncn(C(=O)N(C)c3ccccc3)n2)c(C)c1 [Example 35, 3-(2,4,6-Trimethylphenyl)sulfonyl-1-(N-methyl-N-phenylcarbamoyl)-1H-1,2,4-triazole]",1.51 µM
2,"CN(C)C(=O)n1cnc(S(=O)(=O)C(c2ccccc2)c2ccccc2)n1 [Example 7, 3-(Diphenylmethyl)sulfonyl-1-dimethylcarbamoyl-1H-1,2,4-triazole]",0.192 µM
3,"CC(C)N(C)C(=O)n1cnc(S(=O)(=O)[C@@H]2C[C@@H]3CC[C@H]2C3)n1 (relative stereo) [Example 29, 3-(Endo-norbornan-2-yl)sulfonyl-1-(N-methyl-N-isopropylcarbamoyl)-1H-1,2,4-triazole]",0.00888 µM
4,"CCN(C)C(=O)n1cnc(S(=O)(=O)[C@@H]2C[C@@H]3CC[C@H]2C3)n1 (relative stereo) [Example 24, 3-(Endo-norbornan-2-yl)sulfonyl-1-(N-methyl-N-ethylcarbamoyl)-1H-1,2,4-triazole]",0.0215 µM
5,"CN(C)C(=O)n1cnc(S(=O)(=O)c2cccc(Br)n2)n1 [Example 53, 3-(6-Bromo-2-pyridyl)sulfonyl-1-dimethylcarbamoyl-1H-1,2,4-triazole]",0.351 µM
6,"O=C(N1CCSC1)n1cnc(S(=O)(=O)[C@@H]2C[C@@H]3CC[C@H]2C3)n1 (relative stereo) [Example 25, 3-(Endo-norbornan-2-yl)sulfonyl-1-(1,3-thiazolidin-3-yl)carbonyl-1H-1,2,4-triazole]",0.0574 µM
7,"CN(C)C(=O)n1cnc(S(=O)(=O)N2CCCCC2)n1 [Example 54, 3-(Piperidin-1-yl)sulfonyl-1-dimethylcarbamoyl-1H-1,2,4-triazole]",0.164 µM
8,"O=C(N1CCCC1)n1cnc(S(=O)(=O)[C@@H]2C[C@@H]3CC[C@H]2C3)n1 (relative stereo) [Example 26, 3-(Endo-norbornan-2-yl)sulfonyl-1-(pyrrolidin-1-yl)carbonyl-1H-1,2,4-triazole]",0.244 µM
9,"CN(C)C(=O)n1cnc(S(=O)(=O)N2C3CCCC2CC3)n1 [Example 55, 3-(8-Azabicyclo[3.2.1]octan-8-yl)sulfonyl-1-dimethylcarbamoyl-1H-1,2,4-triazole]",0.0961 µM
10,"CN(C)C(=O)n1cnc(SC2CCOc3ccccc32)n1 (stereo not drawn) [Example 10, 3-(Chroman-4-yl)thio-1-dimethylcarbamoyl-1H-1,2,4-triazole]",0.694 µM
11,"CN(C)C(=O)n1cnc(SCc2ccccc2)n1 [Example 1, 3-Benzylthio-1-dimethylcarbamoyl-1H-1,2,4-triazole]",4.69 µM
12,"CN(C)C(=O)n1cnc(S(=O)(=O)CC23CC4CC(CC(C4)C2)C3)n1 [Example 19, 3-(1-Adamantylmethyl)sulfonyl-1-dimethylcarbamoyl-1H-1,2,4-triazole]",0.233 µM
13,"CCN(CC)C(=O)n1cnc(S(=O)(=O)Cc2ccccc2)n1 [Example 3, 3-Benzylsulfonyl-1-diethylcarbamoyl-1H-1,2,4-triazole]",0.784 µM
14,"Cc1cc(C)c(Sc2ncn(C(=O)N(C)C)n2)c(C)c1 [Example 32, 3-(2,4,6-Trimethylphenyl)thio-1-dimethylcarbamoyl-1H-1,2,4-triazole]",3.69 µM
15,"Cc1cccc(OCC(F)(F)F)c1S(=O)(=O)c1ncn(C(=O)N(C)C)n1 [Example 41, 3-[2-(2,2,2-Trifluoroethyl)oxy-6-methylphenyl]sulfonyl-1-dimethyl-carbamoyl-1H-1,2,4-triazole]",0.00425 µM
16,"CCN(CC)C(=O)n1cnc(S(=O)(=O)c2c(C)cc(C)cc2C)n1 [Example 34, 3-(2,4,6-Trimethylphenyl)sulfonyl-1-diethylcarbamoyl-1H-1,2,4-triazole]",6.63 µM
17,"Cc1nc2ccccn2c1Sc1ncn(C(=O)N(C)C)n1 [Example 50, 3-(2-Methylimidazo[1,2-a]pyridin-3-yl)thio-1-dimethylcarbamoyl-1H-1,2,4-triazole]",5.38 µM

row,SMILES,IC50
1,"CN(C)C(=O)n1cnc(SCC23CC4CC(CC(C4)C2)C3)n1 [Example 18, 3-(1-Adamantylmethyl)thio-1-dimethylcarbamoyl-1H-1,2,4-triazole]",4.53 µM
2,"CN(C)C(=O)n1cnc(S(=O)(=O)Cc2ccc(C(C)(C)C)cc2)n1 [Example 5, 3-(4-Tert-butylbenzyl)sulfonyl-1-dimethylcarbamoyl-1H-1,2,4-triazole]",1.35 µM
3,"CC(C)CN(C)C(=O)n1cnc(S(=O)(=O)[C@@H]2C[C@@H]3CC[C@H]2C3)n1 (relative stereo) [Example 30, 3-(Endo-norbornan-2-yl)sulfonyl-1-(N-methyl-N-isobutylcarbamoyl)-1H-1,2,4-triazole]",0.266 µM
4,"Cc1cc(C)c([S+]([O-])c2ncn(C(=O)N(C)C)n2)c(C)c1 (stereo not drawn) [Example 39, 3-(2,4,6-Trimethylphenyl)sulfinyl-1-dimethylcarbamoyl-1H-1,2,4-triazole]",0.0228 µM
5,"CN(C)C(=O)n1cnc(S(=O)(=O)N2CCc3ccccc32)n1 [Example 57, 3-(2,3-Dihydro-1H-indol-1-yl)sulfonyl-1-dimethylcarbamoyl-1H-1,2,4-triazole]",0.23 µM
6,"CN(C)C(=O)n1cnc(S(=O)(=O)CC2CCCCC2)n1 [Example 17, 3-Cyclohexylmethylsulfonyl-1-dimethylcarbamoyl-1H-1,2,4-triazole]",0.416 µM
7,"CN(C)C(=O)n1cnc(S[C@@H]2C[C@@H]3CC[C@H]2C3)n1 (relative stereo) [Example 12, 3-(Endo-norbornan-2-yl)thio-1-dimethylcarbamoyl-1H-1,2,4-triazole]",1.73 µM
8,"COCCOc1cccc(C)c1Sc1ncn(C(=O)N(C)C)n1 [Example 42, 3-[2-(2-Methoxyethyl)oxy-6-methylphenyl]thio-1-dimethylcarbamoyl-1H-1,2,4-triazole]",0.551 µM
9,"CN(C)C(=O)n1cnc(S(=O)(=O)C2CCCCC2)n1 [Example 15, 3-Cyclohexylsulfonyl-1-dimethylcarbamoyl-1H-1,2,4-triazole]",0.311 µM
10,"Cc1noc(C)c1Sc1ncn(C(=O)N(C)C)n1 [Example 46, 3-(3,5-Dimethylisoxazol-4-yl)thio-1-dimethylcarbamoyl-1H-1,2,4-triazole]",1.77 µM
11,"CN(C)C(=O)n1cnc(SC(c2ccccc2)c2ccccc2)n1 [Example 6, 3-(Diphenylmethyl)thio-1-dimethylcarbamoyl-1H-1,2,4-triazole]",3.46 µM
12,"CN(C)C(=O)n1cnc(SC(c2ccc(F)cc2)c2ccc(F)cc2)n1 [Example 8, 3-[Bis(4-fluorophenyl)methyl]thio-1-dimethylcarbamoyl-1H-1,2,4-triazole]",3.36 µM
13,"Cc1nn(-c2ccccc2)c(C)c1Sc1ncn(C(=O)N(C)C)n1 [Example 48, 3-(3,5-Dimethyl-1-phenylpyrazol-4-yl)thio-1-dimethylcarbamoyl-1H-1,2,4-triazole]",1.55 µM
14,"CN(C)C(=O)n1cnc(S(=O)(=O)c2cc(F)c(C#N)cc2F)n1 [Example 45, 3-(4-Cyano-2,5-difluorophenyl)sulfonyl-1-dimethylcarbamoyl-1H-1,2,4-triazole]",0.0324 µM
15,"CN(C)C(=O)n1cnc(Sc2cc(F)c(C#N)cc2F)n1 [Example 44, 3-(4-Cyano-2,5-difluorophenyl)thio-1-dimethylcarbamoyl-1H-1,2,4-triazole]",0.318 µM
16,"CN(C)C(=O)n1cnc(SC2CCCCC2)n1 [Example 14, 3-Cyclohexylthio-1-dimethylcarbamoyl-1H-1,2,4-triazole]",2.22 µM
